Our source for the inhibition values is PubChem BioAssay AID493105 (The Scripps Research Institute Molecular Screening Center, 2011).

Common to all, as to test: LYPLA1 and LYPLA2 inhibitors, biochemical, gel-based ABPP, fluorescence, recombinant and endogenous enzyme (AID 493105)
Assay [1] deals with emLYPLA1. To be noted: fluorescent probe labeling, membrane fraction, at 20 µM, active compounds read high.
Assay [2] relates to rhLYPLA2. To be noted: fluorescent probe labeling, membrane fraction, at 20 µM, active compounds read high.
The subject of assay [3] is emLYPLA2. To be noted: fluorescent probe labeling, membrane fraction, at 20 µM, active compounds read high.
Assay [4] relates to rhLYPLA1. As to conditions: fluorescent probe labeling, soluble fraction, at 20 µM, active compounds read high.

By inhibition is commonly meant the drop in the measured response relative to a control, in per cent.

Activity calls are given as the source filed them. The rule behind the calls is not given here.

For the compound `O=C(CCCc1ccccc1)N1CCN(c2ccc([N+](=O)[O-])cc2)CC1`, the inhibition in assay [1] is 0% (inactive); in assay [2] it was 0% (inactive); in assay [3], 3% (inactive); in assay [4], 0% (inactive).

For `CCOc1ccc(NC(=S)NC(=O)c2c(Br)cnn2C)c([N+](=O)[O-])c1`, the figures for the inhibition in assay [2], in assay [3] and in assay [4] were 5% (inactive), 16% (inactive) and 17% (inactive), respectively.

As to `COc1ccc(-n2nc(C(=O)NCC(=O)N3CCN(Cc4ccc5c(c4)OCO5)CC3)c3ccccc3c2=O)cc1OC`, the inhibition in assay [1] was 8% (inactive); in assay [2], 50%; in assay [3], 68%; in assay [4], 35%.

On to `O=C(/C=C/c1ccccc1)N1CCN(CCN2C(=O)c3cccc4cccc(c34)C2=O)CC1`, for which the inhibition in assay [2] was 18% (inactive); in assay [3], 34%; in assay [4], 15% (inactive).

Regarding `COc1cc(/C=N/N2CCN(Cc3ccc(Cl)cc3)CC2)cc(Br)c1O`, the inhibition in assay [1] was 0% (inactive); in assay [2], 0% (inactive); in assay [3] it was 0% (inactive); in assay [4] it was 31%.

As to `O=C(N1CCOCC1)n1nnc2ccccc21`, the inhibition in assay [1] was 99%; in assay [2] it was 76%; in assay [3], 88%; in assay [4], 98%.

Turning to `O=C(CCN1CCN(c2ccc([N+](=O)[O-])cc2)CC1)c1ccc(Cl)cc1`, the inhibition in assay [1] was 9% (inactive); in assay [2] it was 6% (inactive); in assay [3], 1% (inactive); in assay [4], 0% (inactive).

With `COc1ccc(N2CCN(C(=O)CCCCCn3c(=O)[nH]c4ccsc4c3=O)CC2)cc1`, the inhibition in assay [2] was 6% (inactive); in assay [3], 6% (inactive); in assay [4] it was 0% (inactive).

For `N#Cc1c(NC(=O)CSc2nc(N)cc(=O)[nH]2)sc2c1CCCC2`, the inhibition was 0% (inactive) in assay [1], 3% (inactive) in assay [2], 0% (inactive) in assay [3] and 26% (inactive) in assay [4].

For `COc1ccc(/C=C2/Sc3ccc(C(=O)NCCCN4CCOCC4)cc3NC2=O)cc1OC`, the inhibition in assay [1] is 5% (inactive); in assay [2], 1% (inactive); in assay [3], 0% (inactive); in assay [4] it was 0% (inactive).

As for `O=C(CN1CCN(c2ccccn2)CC1)Nc1cc(C(F)(F)F)ccc1Cl`, the inhibition in assay [1] is 0% (inactive); in assay [2] it was 6% (inactive); in assay [3], 9% (inactive); in assay [4], 36%.

For the compound `N#Cc1c(NC(=O)CN2CCN(C(=O)c3ccco3)CC2)sc2c1CCCCC2`, the inhibition was 0% (inactive) in assay [1], 0% (inactive) in assay [2], 6% (inactive) in assay [3] and 20% (inactive) in assay [4].

As for `Cc1ccc(CN2CCN(/N=C/C=C/c3ccccc3[N+](=O)[O-])CC2)cc1`, the inhibition is 0% (inactive) in assay [1], 10% (inactive) in assay [2], 26% (inactive) in assay [3] and 27% (inactive) in assay [4].

`NS(=O)(=O)c1ccc(CCNC(=O)c2cc([N+](=O)[O-])ccc2N2CCCCC2)cc1`: the inhibition was 0% (inactive) in assay [1], 0% (inactive) in assay [2], 0% (inactive) in assay [3] and 49% in assay [4].

Turning to `Cc1[nH]c2ccccc2c1C(=O)CN1CCN(C/C=C/c2ccccc2)CC1`, the inhibition in assay [1], in assay [2], in assay [3] and in assay [4] was 0% (inactive) each time.

`CCN(CC)S(=O)(=O)c1cccc(-c2nnc(SCCOc3ccccc3)o2)c1`: the inhibition was 0% (inactive) in assay [1], 19% (inactive) in assay [2], 17% (inactive) in assay [3] and 8% (inactive) in assay [4].

Turning to `COc1ccccc1-n1cc(C(=O)NCC(=O)N2CCN(Cc3ccccc3)CC2)c2ccccc2c1=O`, the inhibition in assay [1] was 1% (inactive); in assay [2], 39%; in assay [3], 52%; in assay [4], 0% (inactive).

As for `COc1ccc(C(CNC(=O)COc2ccc(-c3ccccc3)cc2)N2CCOCC2)cc1` (stereo not given), the inhibition in assay [1] is 0% (inactive); in assay [2], 0% (inactive); in assay [3] it was 1% (inactive); in assay [4], 5% (inactive).

In the case of `COc1ccc(-n2nc(C(=O)NCC(=O)N3CCN(Cc4ccccc4)CC3)c3ccccc3c2=O)cc1OC`, the inhibition in assay [1] was 23% (inactive); in assay [2] it was 7% (inactive); in assay [3], 15% (inactive); in assay [4], 16% (inactive).

Regarding `O=C(C1CCC(Cn2c(=S)[nH]c3ccccc3c2=O)CC1)N1CCN(c2ccccc2)CC1` (stereo not given), the inhibition in assay [1] was 0% (inactive); in assay [2], 13% (inactive); in assay [3], 8% (inactive); in assay [4] it was 0% (inactive).

As for `Cc1ccc([N+](=O)[O-])c(OCCCN2CCC(Cc3ccccc3)CC2)c1`, the inhibition is 0% (inactive) in assay [1], 0% (inactive) in assay [2], 2% (inactive) in assay [3] and 7% (inactive) in assay [4].

Regarding `O=C(COc1ccc(Cl)cc1)N1CCN(c2ccc([N+](=O)[O-])c(N3CCCCC3)c2)CC1`, the inhibition is 5% (inactive) in assay [2], 10% (inactive) in assay [3] and 36% in assay [4].

As to `CSc1ccccc1OCc1cc(C(=O)N2CCC(Oc3cccnc3)CC2)no1`, the inhibition in assay [2] was 6% (inactive); in assay [3] it was 16% (inactive); in assay [4], 0% (inactive).

Turning to `N#Cc1c(N)nc(SCc2ccncc2)c(C#N)c1-c1cccs1`, the inhibition in assay [1] was 10% (inactive); in assay [2], 11% (inactive); in assay [3], 16% (inactive); in assay [4] it was 3% (inactive).

For the compound `COc1ccc(C(=O)NC(=S)Nc2ccc(N3CCOCC3)cc2)cc1Cl`, the inhibition is 0% (inactive) in assay [1], 1% (inactive) in assay [2], 8% (inactive) in assay [3] and 0% (inactive) in assay [4].

Consider `Cc1cc(OCc2cc(C(=O)N3CCC(Oc4cccnc4)CC3)no2)cc(C)c1Cl`, for which the inhibition was 3% (inactive) in assay [2], 5% (inactive) in assay [3] and 0% (inactive) in assay [4].

Regarding `O=C(c1cc(COc2cccc(C(F)(F)F)c2)on1)N1CCC(Oc2cccnc2)CC1`, the inhibition in assay [2], in assay [3] and in assay [4] was 0% (inactive) throughout.

Consider `O=C(c1ccc(-c2ccccc2)c(F)c1)C1CCCN(C(=O)c2cncs2)C1` (stereo not given), for which the inhibition was 6% (inactive) in assay [2], 12% (inactive) in assay [3] and 0% (inactive) in assay [4].

For the compound `Nc1nc(NCc2ccco2)nc(N2CCN(Cc3ccccc3)CC2)c1[N+](=O)[O-]`, the inhibition in assay [2] is 5% (inactive); in assay [3], 1% (inactive); in assay [4], 2% (inactive).

`COc1ccccc1-c1csc(-n2ncc(C#N)c2N)n1`: the inhibition in assay [2] is 4% (inactive); in assay [3] it was 6% (inactive); in assay [4], 0% (inactive).

On to `COc1ccc(-n2nc(C(=O)NCC(=O)N3CCN(Cc4ccccc4)CC3)c3ccccc3c2=O)cc1`, for which the inhibition in assay [2] was 17% (inactive); in assay [3], 43%; in assay [4] it was 17% (inactive).

Turning to `COc1ccc(S(=O)(=O)Nc2ccc(Cc3ccncc3)cc2)cc1C`, the results for the inhibition in assay [2], in assay [3] and in assay [4] were 0% (inactive), 0% (inactive) and 12% (inactive), respectively.

As for `O=C(NC(=S)Nc1sc2c(c1C(=O)O)CCCC2)c1ccccc1`, the values for the inhibition in assay [2], in assay [3] and in assay [4] were 34%, 52% and 2% (inactive), respectively.

Consider `O=C(/C=C/c1ccc(Br)cc1)N1CCN(c2cccc(C(F)(F)F)c2)CC1`, for which the inhibition is 15% (inactive) in assay [2], 16% (inactive) in assay [3] and 16% (inactive) in assay [4].

Take `O=C(c1ccc(S(=O)(=O)N2CCCCC2)cc1)N1CCN(CCN2C(=O)c3cccc4cccc(c34)C2=O)CC1`: the inhibition in assay [2] was 20% (inactive); in assay [3], 27% (inactive); in assay [4], 11% (inactive).

In the case of `O=c1[nH]c(CN2CCN(C/C=C/c3ccccc3)CC2)nc2cc(Cl)ccc12`, the inhibition is 0% (inactive) in assay [2], 2% (inactive) in assay [3] and 3% (inactive) in assay [4].

`O=C(COc1ccc(Cl)cc1)N1CCN(C/C=C/c2ccccc2)CC1`: the inhibition is 12% (inactive) in assay [2], 25% (inactive) in assay [3] and 0% (inactive) in assay [4].

Regarding `COc1cc([C@H]2Oc3cc([C@H]4Oc5cc(O)cc(O)c5C(=O)[C@@H]4O)ccc3O[C@@H]2CO)ccc1O`, the figures for the inhibition in assay [2], in assay [3] and in assay [4] were 28% (inactive), 42% and 13% (inactive), respectively.

As to `Cc1ccc(N2CCN(C3=NC(=O)/C(=C\c4cccs4)S3)CC2)cc1`, the inhibition in assay [2] was 5% (inactive); in assay [3] it was 0% (inactive); in assay [4], 0% (inactive).

Consider `COc1ccc(C(=O)NC(=S)Nc2ccc(N3CCOCC3)c(Cl)c2)cc1[N+](=O)[O-]`, for which the inhibition in assay [2] is 5% (inactive); in assay [3], 1% (inactive); in assay [4] it was 7% (inactive).
